Here are results for five compounds from patent US20220030896A2, “CHOLINE ESTER-CONTAINING COMPOSITION FOR ORAL INGESTION” (Shinshu University, priority 2016, published 2022).

In data set [1] the test system is thoracic aorta ring specimens of SHR. Description: Vascular isometric tension measurement test (phenylephrine-constricted thoracic aorta rings). More on the design: species or system rat. Conditions: standard sample. As to the method:
The ground eggplant samples used for the experiment were prepared as follows. […] 14-week-old male SHRs (body weight 320 to 346 g) were put to death by laparotomy and exsanguination under ether anaesthesia, and the thoracic aorta was quickly removed. The isolated aorta was immersed in physiological saline and the blood was thoroughly rinsed off, and then the connective tissue and adipose tissue attached to the blood vessel were removed in a Krebs-Henseleit solution to prepare a ring specimen with a width of about 2 to 3 mm. The resulting ring specimens were attached inside an organ bus of an isometric tension test device (UFER UC-05[…]., Kyoto) filled with Krebs-Henseleit solution of 37° C. (119 mM NaCl/4.7 mM KCl/1.1 mM KH2PO4/1.2 mM MgSO4/25 mM NaHCO3, pH 7.4) in which a mixed gas of 95% O2-5% CO2 was aerated, then a static tension of 1.0 g was applied and the ring specimens were stabilized for 60 minutes. […] The change in tension was measured and recorded by using a transducer (UFER UM-20, Iwashiya Kishimoto Ika Sangyo Co., Ltd.), the dilation rate (%) was calculated by equation (1) hereinafter, and the mean value±standard error (Mean±S. E.) was determined by repeating the test results three times. […]

The test system of data set [2] is spontaneously hypertensive rats (SHR). Description: Repeated oral administration test of AcCh in SHR that did not fast. Type of data set: in vivo, rat. The settings on record: in SHRs, weight assumed 370 g. The text has this: (§1) This AcCh dose at which a blood pressure-lowering effect occurred in SHRs in normal condition upon oral ingestion was extrapolated to humans using Kleiber's law (Non-Patent Document 22). According to Kleiber's law, the mammalian metabolic rate is assumed to be proportional to the ¾ power of body weight, assuming the SHR weight to be 370 g and human weight to be 60 kg, the effective dose for humans is estimated to be 45.4 times the effective dose for SHRs.
(§2) When this AcCh dose was extrapolated to humans using Kleiber's law (Non-Patent Document 22), the upper limit of the daily human effective dose was 3.36×10^−6 mol (491 μg). Therefore, the daily effective dose for humans with high blood pressure having genetic characteristics such as SHRs was estimated to be in the range of 5 to 500 μg.

For data set [3] the test system is unchanged. Description: Single oral administration test in spontaneously hypertensive rats (tail cuff blood pressure, heart rate). Conditions: SHRs after 12 hours of fasting. Type of data set: in vivo, rat. As to the method: The lyophilized eggplant powder was prepared by washing a 'Senshu' water eggplant from […], Osaka-fu with water, by sterilizing the eggplant with hypochlorous acid, and by finely grinding the edible part after lyophilisation. […] In order to compare the blood pressure-lowering effect, an administration test of an AcCh standard sample of 1.00×10^-9 mol/kg was performed in the same manner and the systolic blood pressure was measured. To a control group only water was administered under the same conditions. 0, 3, 6, 9, and 24 hours after the oral administration, systolic blood pressure, diastolic blood pressure and heart rate were measured by the tail cuff method using the non-invasive blood pressure measuring instrument Softron BP-98A (Softron Co., Ltd., Tokyo).

For another data set, the system named is humans. The data set is described as follows: Extrapolation of effective AcCh dose from SHR to humans by Kleiber's law. More on the design: species or system human.
Description: as §1, §2

Data set [4] can be described thus: Change over time of AcCh amount in aqueous pH solutions (standard sample). The format is physicochemical. Conditions: pH 4.1 to pH 3.1, after 12 days. As to the method:
A method for stabilizing choline esters in eggplants was examined. […] Therefore, firstly, the concentration change over time of an AcCh standard sample was examined under neutral and acidic conditions. The neutral solution (pH 7.0) was a phosphate buffer solution, and the acidic solutions (pH 4.1, pH 3.6, pH 3.1, pH 2.6) were prepared by adding acetic acid; the pH solutions with an AcCh concentration of 1.9 mg/mL were allowed to remain at ambient temperature (23 to 25° C.) for 0, 3, 6, 12 days, and then the AcCh content was quantified.

The subject of data set [5] is spontaneously hypertensive rats (SHR). The settings on record: purified compound, SHRs, single oral administration; cited from earlier work.

On to `NCCCC(=O)O` [γ-aminobutyric acid (GABA), γ-aminobutyric acid], for which the “effect on blood vessels” value in data set [1] (4.8 μg/mL) is “no effect on blood vessels was observed”.

Turning to `CC(=O)OCC[N+](C)(C)C` [AcCh, acetylcholine], in data set [2], the “effective daily intake of AcCh causing a blood pressure lowering effect” value was determined as 3.7e-09 mol. Also, the “effective daily dose of AcCh” value in data set [3] is 1e-09 mol/kg. For the same compound, in the data set on humans, the “lower limit of the daily effective dose for humans” value was 3.36e-08 mol and the “upper limit of the daily human effective dose” value was 3.36e-06 mol. Further, the AcCh remaining in data set [4] is not below 97%.

Turning to `CCCC(=O)OCC[N+](C)(C)C` [BuCh, butyrylcholine], in data set [5], the blood pressure-lowering effect result was “blood pressure-lowering effect is shown”. As for `O=C(/C=C/c1ccc(O)c(O)c1)O[C@@H]1C[C@](O)(C(=O)O)C[C@@H](O)[C@H]1O` [Chlorogenic acid], the “effect on blood vessels” value in data set [1] (11 μg/mL) is recorded as “no effect on blood vessels was observed”. As to `CCC(=O)OCC[N+](C)(C)C` [PrCh, propionylcholine], the blood pressure-lowering effect result in data set [5] is “blood pressure-lowering effect is shown”.
